Reference: patent publication US20240417727A1, “ANTAGONIST OF THE MIRNA-106B-5P TO TREAT OR PREVENT THE CARDIOTOXICITY THAT IS DEVELOPED IN ONCOLOGIC PATIENTS AFTER RECEIVING ANTHRACYCLINE-BASED CHEMOTHERAPY” (UNIVERSIDAD DE MURCIA, priority 2021, published 2024)

Columns and labels:
miR-106b = miR-106b levels by quantitative RT-PCR in hiPsCMs exposed to Dox; type: cell-based, human; details: 5 μM Dox
Experimental: Human induced pluripotent stem cells (hiPCs) were obtained from Phenocell®, (Catalog No. PCi_CAU) and cultured according to manufacturer's instructions. Briefly, hiPCs on a suitable matrix to allow attachment of cell aggregates (Matrigel®), were grown to 80% confluence using mTeSR™ plus medium. At passage 20, we started reprogramming procedure using a standardize protocol in our laboratory. Thus, culture medium was removed and changed to RPMI-1640 with B27 minus insulin supplement (basal differentiation supplement) with 4 μM CHIR99021 (day 0). On day 3, medium was changed to basal differentiation supplement and 3 μM IWR-1. On day 5, medium was refreshed with basal differentiation supplement. Medium was changed on day 8 to RPMI 1640 with B27 supplement (cited above as RMPI/B27). On day 11, medium was changed to RPMI 1640 without glucose with B27 minus insulin. On day 14, medium was changed to RPMI/B27; procedure that was repeated every 72 h. Beating clusters were observed after 7-14 days. A standardizing gene expression profiling (RT-qPCR) both hiPs as well as hiPsCMs were carried in each human isolated clone, before starting assays. […] The cardiotoxic treatment was carried out by exposing the cell culture to 5 μM doxorubicin for different time period; unless otherwise mentioned. All the in vitro assays were performed as three biological replicates, with technical replicates each time.
Mature miR-106b expression levels were assessed by quantitative RT-PCR using the miRCURY LNA UniRT PCR primer for miR813 106b-5p (Qiagen) and Power SYBR5Green PCR Master Mix (Thermo Fisher Scientific). U6 (Qiagen) was used as internal control to normalize miR-106b expression.

PR55α = PR55α expression levels by Western blot in hiPsCMs; type: cell-based, human; details: for decrease in PR55α protein levels: Dox
From the text: The hsa-miR-106b-5p sequence of nucleotides was obtained from www.MiRbase.org. Human miR-106b (accession No: MIMAT0000680) and nucleotide sequence of 5′-[…]-3′ are homologous between mice and man. In order to express or block the specific miR-106b function, synthetic pre-miR-106b or antimiR-106 oligonucleotides were transfected into hiPsCMs cells, respectively. Lipofectamine RNAiMAX transfection reagent (ThermoFisher) was used according to the manufacturer's instructions. […] Two day before transfection, hiPsCMs cells were seeded in 6-well plates with 2 ml of STEMdiff™ Cardiomyocyte Support Medium (STEMCELL™ Technologies) to a density of 60%. Stock transfection mixes were made according to manufacturer's instructions. Briefly, 9 μl of Lipofectamine reagent was diluted in 141 μl of Opti-MEM I Medium (Invitrogen) and incubated 5 min at RT. In another tube, pre-miRNA, anti-miRNA or the specific controls oligonucleotides were diluted with Opti-MEM to a final concentration of 50 nM. Both mixes were incubated together for 30 min at RT to allow complex formation between miRNA and lipids. To transfect cells, the STEMdiff™ Cardiomyocyte Support Medium was removed and replaced with 1.75 ml fresh Medium and 250 μl of the appropriate transfection mix. Cells were incubated at 37° C. for […], after which hiPsCMs were treated with […] Dox for 15 h. Transfection efficiency was tested in parallel using both hiPsCMs as well as a mouse cell line HL-1 (FIG. 7). […]
(§1) Protein extracts (10 μg) obtained were denatured, separated by SDS-PAGE electrophoresis (Bio-Rad), transferred onto PVDF membrane (Millipore) and probed with antibodies to GADPH (MERCK, 8795,1:5000), TBP (CELL SIGNALING, 8515, 1:1000), PR55α (CELL SIGNALING, 5689, 1:1000), phospho-HDAC4 (ABCAM, ab39408, 1:2000), HDAC4 (CELL SIGNALING, 5392, 1:1000), YY1 (CELL SIGNALING, 2185,1:1000) and sST2 (PROTEINTECH, 11,920-1-AP, 1:1000). […] Signals were detected by chemiluminescence and quantified using ImageJ 1.44p pixel analysis (US National Institutes of Health).

HDAC4 = assay: Phosphorylated and total HDAC4 in cytosol and nucleus (subcellular fractionation, Western blot); type: cell-based, human; details: hiPsCMs; for phosphorylation state of HDAC4 Ser246 in cytosol: Dox 15 h, preincubation 24 h before Dox; for total HDAC4 levels in nuclei fractions: Dox, pretreatment before Dox
Experimental: Briefly, fresh LV (˜30 mg) tissue or harvested untreated or treated cells (˜3×10^6 cells) were washed using cold DPBS along with 100-fold diluted protease and phosphatase inhibitors. Human cardiomyocytes were pelleted by centrifugation at 480×g for 10 min at 4° C., while the myocardium was placed in a pre-chilled glass Petri dish and minced on ice using sharp scissors. All samples were homogenized in 500 μl of STM buffer at pH 7.4, containing 250 mM sucrose, 50 mM Tris-HCl, 5 mM MgCl2, 5 mM Na3VO4, 1% (v/v) protease and phosphatase inhibitor cocktails and homogenized for 1 min on ice using a tight-fitting Teflon pestle attached to a Potter S. homogenizer (Sartorius Stedium, Goettingen, Germany) set to 800 rpm. The homogenate was maintained on ice for 30 min, vortexed at maximum speed for 15 s and then centrifuged at 800×g for 15 min at 4° C. The pellet was labelled as P0 and kept on ice; the supernatant was labelled as S0. The pellet P0 (containing nuclei and debris) was resuspended in 500 μl STM buffer, vortexed at maximum speed for 15 s and then centrifuged at 500×g for 15 min at 4° C. Following the above step, the nuclear pellet was labelled as P1 and kept on ice, and the supernatant S1 (cell debris) was discarded. To further increase the purity of the P1 fraction it was washed in 400 μl STM buffer, vortexed at maximum speed for 15 s and then centrifuged at 1000×g for 15 min at 4° C. The washed pellet was labelled as P2 (S2 was discarded) and resuspended in 100 μl NET buffer composed of 20 mM Hepes pH 7.9, 1.5 mM MgCl2, 0.5 M NaCl, 0.2 mM EDTA, 20% (v/v) glycerol, 1% (v/v) Triton-X-100 and protease and phosphatase inhibitors, using a pipette to triturate until homogeneity. Pellet P2 was vortexed at maximum speed for 15 s and incubated on ice for 30 min; the resulting fraction contained the nuclei, which were lysed by sonication (Soniprep 150, MSE, London, UK) at a high setting for 10-15 s with 30 s pauses whilst being kept on ice. The lysate was centrifuged at 9000×g for 30 min at 4° C., the resultant supernatant (S3) was the final “nuclear fraction”. […] The protein content of each compartment was determined using the BCA protein assay^48. […]
as §1

YY1 = YY1 expression levels by Western blot in hiPsCMs; type: cell-based, human; details: Dox
Experimental: (§2) Protein extracts (10 μg) obtained were denatured, separated by SDS-PAGE electrophoresis (Bio-Rad), transferred onto PVDF membrane (Millipore) and probed with antibodies to GADPH (MERCK, 8795,1:5000), TBP (CELL SIGNALING, 8515, 1:1000), PR55α (CELL SIGNALING, 5689, 1:1000), phospho-HDAC4 (ABCAM, ab39408, 1:2000), HDAC4 (CELL SIGNALING, 5392, 1:1000), YY1 (CELL SIGNALING, 2185,1:1000) and sST2 (PROTEINTECH, 11,920-1-AP, 1:1000). Membranes were developed using HRP conjugated secondary antibodies and Pierce ECL western blotting substrate (Thermo Fisher Scientific). Signals were detected by chemiluminescence and quantified using ImageJ 1.44p pixel analysis (US National Institutes of Health).

HDAC4-YY1 interaction = assay: Reciprocal co-immunoprecipitation of HDAC4 and YY1 in nuclear fraction of hiPsCMs; type: cell-based, human; details: nuclear fraction from hiPsCMs
Experimental: Briefly, fresh LV (˜30 mg) tissue or harvested untreated or treated cells (˜3×10^6 cells) were washed using cold DPBS along with 100-fold diluted protease and phosphatase inhibitors. Human cardiomyocytes were pelleted by centrifugation at 480×g for 10 min at 4° C., while the myocardium was placed in a pre-chilled glass Petri dish and minced on ice using sharp scissors. All samples were homogenized in 500 μl of STM buffer at pH 7.4, containing 250 mM sucrose, 50 mM Tris-HCl, 5 mM MgCl2, 5 mM Na3VO4, 1% (v/v) protease and phosphatase inhibitor cocktails and homogenized for 1 min on ice using a tight-fitting Teflon pestle attached to a Potter S. homogenizer (Sartorius Stedium, Goettingen, Germany) set to 800 rpm. The homogenate was maintained on ice for 30 min, vortexed at maximum speed for 15 s and then centrifuged at 800×g for 15 min at 4° C. The pellet was labelled as P0 and kept on ice; the supernatant was labelled as S0. The pellet P0 (containing nuclei and debris) was resuspended in 500 μl STM buffer, vortexed at maximum speed for 15 s and then centrifuged at 500×g for 15 min at 4° C. Following the above step, the nuclear pellet was labelled as P1 and kept on ice, and the supernatant S1 (cell debris) was discarded. […] The protein content of each compartment was determined using the BCA protein assay^48. […]

sST2 = sST2 expression levels in hiPsCMs; type: cell-based, human; details: Dox 15 h
Experimental: RNA isolation and quantitative RT-PCR.
as §2

[1] = system: miR-106b target FOG2 in hiPsCMs; assay: FOG2 mRNA levels (efficiency of miR-106b inhibition) in hiPsCMs; type: cell-based, human; details: preincubation 24 h, then Dox 15 h, vs AC
HL-1 cell line = assay: FOG2 mRNA levels in HL-1 cell line; type: cell-based, mouse; details: 5 μM Dox for 15 h
hiPsCMs [2] = assay: LDH levels in cell supernatant from hiPsCMs; type: cell-based, human; details: Dox 15 h
hiPsCMs [3] = assay: Assay for cell viability (MTT); type: cell-based, human; details: Dox 15 h
Experimental: After seeding 5×10^3 cells in each 96-well plate, they were incubated in 5% CO2 at 37° C. for 24 h. After cited treatment, MTT solution (1 mg/ml) was added to each well and an incubation was performed for 3 h at 37° C. Next, the medium containing MTT was removed and 100 μL of DMSO was added to each well and pipetted several times to form a completely uniform suspension. The solution was then shaken for 10 min at 37° C. until formazan crystals were completely dissolved. The obtained solution was added to a microtube and centrifuged in 1500 RPM for 5 min to eliminate any impurities. Absorbance of the samples was read at 570 nm and the background value at 690 nm was subtracted. The intrinsic absorbance value of doxorubicin was subtracted when necessary. The index of cell survival at each time point corresponds to the percentage with respect to control.

[4] = system: Caspase 3/7 activity in hiPsCMs; assay: Caspase-Glo 3/7 assay; type: cell-based, human; details: 5 μM Dox 15 h
Experimental: Caspase assay was performed as per the manufacturer's instructions with the Caspase-Glo 3/7 kit (Promega). In this setting, hiPsCMs were treated with 5 μM Dox for 15 h. Next, hiPsCMs and caspase assay reagent were left at RT for 30 min. The next step was adding an equal amount of caspase assay reagent and further incubated for 30 min at RT. Luminescence was measured using a microplate reader CLARIOstar Plus (BMG Labtech).

PP2A = PP2A Immunoprecipitation Phosphatase Assay; type: cell-based, human; details: hiPsCMs, Dox treatment
Experimental: To measure PP2A phosphatase activity, we used a PP2A Immunoprecipitation Phosphatase Assay Kit (Millipore Sigma, catalog number 17-313). In brief, cells were lysed in 20 mM imidazole HCl, 2 mM EDTA, 2 mM EGTA, pH 7.0 with 10 μg/mL each of aprotinin, leupeptin, pepstatin, 1 mM benzamidine, and 1 mM PMSF. Two milligrams of the lysates were then immunoprecipitated with 2 μg of anti-STRN4 antibody (Abcam, ab177155) and 40 μl of protein-A-agarose beads at 4° C. overnight. Beads were washed three times with lysis buffer followed by the Ser/Thr assay buffer. Phosphatase reactions were then performed in Ser/Thr assay buffer with a final concentration of 750 μM of MAP4K4 phosphopeptides: S771/S775 (A-A-S-pS-L-N-L-pS-N-G-E-T-E-S-V-K), S876 (L-T-A-N-E-T Q-pS-A-S-S-T-L-Q-K) or S1251 (V-F-F-A-pS-V-R-S) for 10 min at 30° C. To provide evidence that the immunoprecipitated phosphatase activity is PP2A, we treated parallel immunoprecipitates with 5 nM of okadaic acid (Cell Signaling, #5934). Dephosphorylation of the phosphopeptide was measured through malachite green phosphate detection at 650 nm.

Compound | miR-106b levels in hiPsCMs (miR-106b; 3 h of treatment) [fold control] | miR-106b levels in hiPsCMs (miR-106b; 15 h, p<0.001) | miR-106b levels in the culture media of hiPsCMs (miR-106b; significant from 15 h) | decrease in PR55α protein levels (PR55α; 6 h of treatment) [fold control] | decrease in PR55α protein levels (PR55α; 15 h, p<0.001) | phosphorylation state of HDAC4 Ser246 in cytosol (HDAC4) | total HDAC4 levels in nuclei fractions (HDAC4) | YY1 protein expression (YY1; 6 h of treatment) [fold control] | YY1 protein expression (YY1; 15 h, p<0.001) | HDAC4-YY1 interaction (HDAC4-YY1 interaction) | sST2 expression levels (sST2) | FOG2 mRNA levels [1] | FOG2 mRNA levels (HL-1 cell line) | release of LDH (hiPsCMs [2]) | loss of Dox-induced cell viability (hiPsCMs [3]) | caspase 3/7 activity (myocardial apoptosis) [4] | PR55α levels (PR55α; with or without Dox) | PP2A activity (PP2A)
COc1cccc2c1C(=O)c1c(O)c3c(c(O)c1C2=O)C[C@@](O)(C(=O)CO)C[C@@H]3O[C@H]1C[C@H](N)[C@H](O)[C@H](C)O1 [Dox, doxorubicin] | 2.3±0.03 | significantly higher | progressively increased | 2.6±0.02 | significantly higher | significantly increases | significative decrease in total HDAC4 levels | 3.8±0.23 | significantly higher | prevent HDAC4-YY1 interaction | increase in sST2 expression levels | – | – | – | – | – | – | –
AM106: miRCURY LNA microRNA Inhibitor against miR-106b-5p, 5′-CACTGTCAGCACTTT-3′ (SEQ ID NO 3), sequence shown without LNA pattern (antisense CACUGUCAGCACUUU; LNA-modified inhibitor, LNA pattern not given here) | – | – | – | – | – | decreased phosphorylation state of HDAC4 | increased | – | – | favored these interaction | reverted this effect | prevent down-regulation of FOG2 mRNA levels | increases FOG2 mRNA levels | prevent the release of LDH | able to prevent | decrease in caspase 3/7 activity | prevented Dox-induced PR55α degradation | prevented Dox-induced PP2A activity decrease
